Data from US11154057B2, “Use of nootkatone to treat mosquito infestations” (EVOLVA SA, priority 2016, dated 2021).
Read-outs that look alike come from different tables or passages of the source.

Tests used:
Assay type in all cases: in vivo
Aedes aegypti larvae [1] = experiment: Liquefied nootkatone dripped onto the water surface as larvicide (Example No. 9, Treatment 1); details: thirty one microliters liquefied nootkatone on 100 mL water; 25 larvae; 24 hours
Description: In this example, nootkatone-containing compositions were evaluated for their ability to act as a larvicide by coating a water surface. Mixed sex 3rd and 4th instar Aedes aegypti larvae (Yellow fever mosquito) were tested.
98% pure nootkatone crystals were held at 38° C. until they liquefied. Previous testing has shown that 1 mL of a 3% solution of nootkatone dissolved in ethanol, when added to 100 mL of water containing mosquito larvae, kills 100% of larvae in less than 24 hours. This experiment tested whether an equivalent amount of liquefied nootkatone alone is able to kill larvae. Thirty one microliters of liquified nootkatone crystals were dripped onto the surface of 100 mL of water in a 600 mL clean, glass beaker containing 25 mixed sex 3rd and 4th instar Aedes aegypti larvae.

mosquito larvae = test system: mosquito larvae
Description: In this example, concentration titration was performed to determine effective concentrations of nootkatone in nootkatone-containing protective compositions that maintain larvicidal activity, and to determine the effect of surface area on larvicidal activity of nootkatone-containing compositions.
One milliliter of a solution of nootkatone in ethanol was applied directly to 200 milliliters of water containing larvae, using a micropipette. One treatment condition used 3% (v/v) nootkatone in ethanol, a second treatment condition used 1% (v/v) nootkatone in ethanol, and a third treatment used 0.5% (v/v) nootkatone in ethanol, for final concentrations of 30, 10, or 5 mg of nootkatone added per container. One milliliter of pure ethanol was used as a control. Three replicates of 25 larvae were tested per treatment in small- (250 mL flasks (23.8 cm^2 surface area) and medium-sized (600 mL beakers (54 cm^2 surface area)) containers, but only two replicates were made in large 1000 mL beakers (86.6 cm^2 surface area).
Containers were lightly covered with paper towels. Indicated surface areas were calculated based on the inside diameter of the container at the surface level when 200 mL water was added to the container.
(§1) Larvae were observed after 24 hours post-introduction to the test containers.
(§2) Readings were discontinued if treated mortality reached 100%, or control mortality exceeded 20%.

[2] = test system: Adult Aedes aegypti mosquitoes; experiment: Prevention of adult mosquito egg laying on treated filter papers; fecundity and adult mortality (Example No. 8); details: for Adult mosquito mortality: Affected, mean / Adult mosquito mortality: Dead, mean / Adult mosquito mortality: Knockdown, mean: 1% NK treated filter paper, cage of 100 mosquitoes; for Percent fecundity reduction, average: filter paper treated with 1 mL, dried, versus untreated paper in the same cage of 100 blood fed mosquitoes, triplicate
Description: Adult Aedes aegypti mosquitoes from a laboratory were blood fed and mated. Testing was conducted 2 days after administration of the blood meal to ensure that females were ready to oviposit.
White filter paper was cut to fit Petri dishes 9 cm in diameter, and each paper was treated with 1 mL of ethanol, 1% nootkatone, Formulation ECS-F-#605, or Formulation ECS-F_#607 (see Table No. 5). The filter papers were allowed to dry completely, and two Petri dishes were added to each cage of 100 blood fed mosquitoes, one treated, and one untreated control. A few milliliters of water was added to each Petri dish to provide a suitable egg laying site. […] Each treatment was tested in triplicate.
Female mosquitoes lay a high density of eggs (black spots) on suitable egg laying substrates, such as white filter paper. It was anticipated that either adult females would be repelled from egg laying sites that were treated with nootkatone, or that they would attempt to land and be poisoned by contacting nootkatone on the water surface. The rate of egg laying on the treated surface and the control surface, the presence of any adults found dead on the surface, and the overall mortality rate on a daily basis were recorded, and the average and standard error were calculated versus the untreated controls. […] An unexpected result was that filter papers treated with ethanol alone had 24% more eggs laid than the average of the untreated filter papers in the same cages. […] Photographs of representative filter papers are shown in FIG. 15, 1% nootkatone treatment (left), ethanol-only control (right).

Aedes aegypti larvae [3] = test system: Aedes aegypti larvae
Text: This example describes a laboratory bioassay in which groups of mosquito larvae were exposed to a nootkatone-containing composition to determine larval susceptibility to nootkatone.
One milliliter of a solution of nootkatone in ethanol was applied directly to 100 milliliters of water containing larvae, using a micropipette. One treatment condition used 3% (v/v) nootkatone in ethanol, and a second treatment condition used 1% (v/v) nootkatone in ethanol, for final concentrations of 0.03% or 0.01% (v/v), respectively. One milliliter of pure ethanol was used as a control. Four replicates of 25 larvae were tested per treatment. Clean, glass 600 mL laboratory beakers were used as test containers such that the surface area of the water to be treated was 54 cm^2.
as §1, §2

Aedes aegypti pupae = experiment: Efficacy against mosquito pupae (Example No. 6); details: for pupae died within 24 hours: 0.03% nootkatone/1% ethanol
Description: Eggs of Aedes aegypti were purchased from a commercial supplier. Eggs were hatched in sterile MilliQ water and fed with finely ground Tetramin® fish food until they developed into pupae.
Clean, glass 600 mL beakers were washed and thoroughly rinsed prior to use as test containers. On testing days, pupae were removed from dishes used to grow larvae. Replicates of 10 pupae each were randomly assigned to glass beakers in a volume of 100 mL of sterile MilliQ water, and a treatment of nootkatone (see “Treatments” below), or a control treatment of ethanol alone, was added. Three control replicates and 4 treated replicates were tested on one day, and on a second day, two control replicates and four treated replicates were tested. The beakers were then covered lightly with Kimwipes, secured by rubber bands to prevent escape of adults. The beakers were observed after 24 hours, and the numbers of live pupae, dead pupae, live adults, and dead adults were recorded.
An aliquot of 1 mL of a 3% solution (w/v) of nootkatone in 100% ethanol was added to treatment beakers to obtain a final concentration of 0.03% nootkatone/1% ethanol. Control beakers received 1 mL of 100% ethanol, to obtain a final concentration of 1% ethanol.

## C=C(C)[C@@H]1CCC2=CC(=O)C[C@@H](C)[C@]2(C)C1 [Nootkatone, nootkatone]
Aedes aegypti larvae [1]
  kill rates for mosquito larvae compared with nootkatone dissolved in ethanol: not as high as previous testing
Mosquito larvae; 5 mg nootkatone in 200 mL water, 250 mL flasks, 23.8 cm^2, 24 hours
  larval mortality: 68%
Mosquito larvae; 5 mg nootkatone in 200 mL water, largest containers, 86.6 cm^2, 24 hours
  larvae killed: did not kill
Mosquito larvae; 5 mg nootkatone in 200 mL water, medium sized containers, 54 cm^2, 24 hours
  larval mortality: 16%
Mosquito larvae; 10 mg nootkatone in 200 mL water, flasks with smallest surface area 23.8 cm^2 (about 0.42 mg/cm^2)
  larvae killed in 24 hours: killed all larvae
Mosquito larvae; 30 mg nootkatone in 200 mL water, any container size (23.8, 54, 86.6 cm^2)
  larvae killed in 24 hours: kill all larvae
Mosquito larvae; 24 hours, water surface
  surface concentration at which nootkatone exhibits larvicidal properties: at least 0.09 mg/cm^2
[2]; 1 day post-exposure
  Adult mosquito mortality: Affected, mean: 6.7 per cage
  Adult mosquito mortality: Dead, mean: 6.7 per cage
  Adult mosquito mortality: Knockdown, mean: 0.0 per cage
[2]; 2 days post-exposure
  Adult mosquito mortality: Affected, mean: 10.7 per cage
  Adult mosquito mortality: Dead, mean: 10.7 per cage
  Adult mosquito mortality: Knockdown, mean: 0.0 per cage
[2]; 1% nootkatone in ethanol, versus 700-1100 eggs per cage on untreated papers
  total eggs laid on treated papers in 3 cages: 2 eggs
[2]
  Percent fecundity reduction, average: 99%
[2]; listed as NK
  Percent fecundity reduction, average: 99.9%
Aedes aegypti larvae [3]; 0.01% (v/v) nootkatone final, 24 hours of exposure, four replicates
  larvae killed, on average: 80%
Aedes aegypti larvae [3]; 0.01% (v/v) nootkatone final, after 48 hours
  mortality: 100%
Aedes aegypti larvae [3]; 0.03% (v/v) nootkatone final (1 mL of 3% in ethanol to 100 mL water), 54 cm^2, 24 hours post introduction
  Dead (mortality), mean: 100%
Aedes aegypti larvae [3]; 0.03% (v/v) nootkatone final, 1% ethanol, 100 mL water, 54 cm^2, 24 hours post introduction
  Affected, mean: 100.0%
Aedes aegypti larvae [3]; 0.03% (v/v) nootkatone final, 1% ethanol, 100 mL water, 54 cm^2, 24 hours post introduction, four replicates of 25 larvae
  Morbidity (M), mean: 0%
Aedes aegypti pupae; 0.03% nootkatone/1% ethanol in water, average of two test days, controls 3%, FIG. 12
  pupae died within 24 hours, average: 94%
Aedes aegypti pupae; one experiment
  pupae died within 24 hours: 93%
Aedes aegypti pupae; second day of testing
  pupae died within 24 hours: 95%
